Measurements: patent publication US20230044633A1, “OPTICAL BASED METHODS FOR DETERMINING ANTIMICROBIAL DOSING REGIMENS” (University of Houston System, priority 2019, published 2023)
≈ marks a conversion by molar mass, not a printed value.

Experiments:
[1] = test system: Acinetobacter baumannii (AB), ATCC BAA747; test: Susceptibility (MIC); format: cell-based; details: ATCCBAA747, wild type AB ATCC BAA747, previously found
Protocol: Microorganism. A laboratory reference wild type Acinetobacter baumannii (AB), ATCC BAA747, was utilized in the study. The bacteria were stored at −70° C. in Protect® vials. Before the experiment, the bacteria were subcultured at least twice on 5% blood agar plates for 24 hours at 35° C. and fresh colonies were used.

[2] = test system: A. baumannii 1261 (clinical isolate); test: Clinical isolate exposed to antibiotic concentration combinations in 4×4 array, tracked over 24 h on 216Dx; format: cell-based, Acinetobacter baumannii; details: clinical isolate of A. baumannii (multidrug resistant)
Protocol: FIG. 3. A. baumannii 1261 was exposed to 16 different concentration combinations of levofloxacin (L) and amikacin (A). Each sequence of points represents the time course of the bacterial population (baseline inoculum approximately 2-5×10^5 CFU/ml) exposed to one levofloxacin/amikacin concentration combination (e.g., levofloxacin 20 mg/l+amikacin 30 mg/ is shown in hollow squares). Bacteria exposed to drugs with no activity produce profiles that superimpose on those from placebo controls; antimicrobial activity manifests as a delay or absence of growth.
Ineffective antibiotics may have acceptable activity when combined. A clinical isolate of A. baumannii was exposed to different antibiotic concentration combinations in a 4×4 array, and the bacterial burden was tracked over 24 h using the prototype technical platform 216Dx. While the isolate is resistant to levofloxacin, amikacin and cefepime (multidrug resistant), bacterial growth was delayed in selected combinations (FIG. 3) and the profiles were reasonably captured by the mathematical modeling framework (1) shown above (FIG. 1, right).

| MIC [1] | Compound | susceptibility phenotype of the isolate [2] |
| --- | --- | --- |
| 0.25 µg/mL (≈ 0.692 µM) | C[C@H]1COc2c(N3CCN(C)CC3)c(F)cc3c(=O)c(C(=O)O)cn1c23 [LVX, Levofloxacin] |  |
|  | NCC[C@H](O)C(=O)N[C@@H]1C[C@H](N)[C@@H](O[C@H]2O[C@H](CN)[C@@H](O)[C@H](O)[C@H]2O)[C@H](O)[C@H]1O[C@H]1O[C@H](CO)[C@@H](O)[C@H](N)[C@H]1O [amikacin] | resistant |
|  | CO/N=C(\C(=O)N[C@@H]1C(=O)N2C(C(=O)[O-])=C(C[N+]3(C)CCCC3)CS[C@H]12)c1csc(N)n1 [cefepime] | resistant |
